Laboratory results from PubChem BioAssay (NCI).
Where “and” joins values, the source holds several entries; their conditions need not be identical. Equal entries are not always repeated.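 Protocol summary: plate cells (96-well), add compound at 5 concentrations, incubate 48 h, interpolate endpoints linearly. GI50 is the concentration that inhibits growth by half. TGI: total growth inhibition.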

Columns and labels:
Assay in all cases: NCI anticancer screen, dose series, 48 h
BT-549 breast = system: BT-549 breast
EKVX NSCLC = system: EKVX NSCLC
HCT-15 colon = system: HCT-15 colon
K-562 leukemia = system: K-562 leukemia
NCI-H460 lung = system: NCI-H460 lung
OVCAR-3 ovarian = system: OVCAR-3 ovarian
SF-295 CNS = system: SF-295 CNS
SN12C renal = system: SN12C renal
U251 CNS = system: U251 CNS
UO-31 renal = system: UO-31 renal

Compound | GI50 (BT-549 breast) | TGI (BT-549 breast) | GI50 (EKVX NSCLC) | TGI (EKVX NSCLC) | GI50 (HCT-15 colon) | TGI (HCT-15 colon) | GI50 (K-562 leukemia) | TGI (K-562 leukemia) | GI50 (NCI-H460 lung) | TGI (NCI-H460 lung) | GI50 (OVCAR-3 ovarian) | TGI (OVCAR-3 ovarian) | GI50 (SF-295 CNS) | TGI (SF-295 CNS) | GI50 (SN12C renal) | TGI (SN12C renal) | GI50 (U251 CNS) | TGI (U251 CNS) | GI50 (UO-31 renal) | TGI (UO-31 renal)
C[C@@H]1CC[C@@H]2[C@@H]1[C@H](OC(=O)/C=C/C1CCCCC1)[C@]1(C3CCCCC3)C[C@@H](OC(=O)CO)[C@@]2(C)O1 | 0.0551 µM | 5.7 µM | 12.1 µM | 24.4 µM | 14 µM | 26.7 µM | 15.9 µM | 35.9 µM | 14.6 µM | 30 µM | 13.8 µM | 26.7 µM | 14.3 µM | 26.7 µM | 0.0321 µM | 15.1 µM | 13.7 µM | 26.1 µM | – | –
c1ccc2c(N=NSc3ncnc4nc[nH]c34)c3ccccc3nc2c1 | 2.76 µM | 8.7 µM | 2.61 µM | 12.8 µM | 1.15 µM | 10.2 µM | 1.58 µM | 11.1 µM | 0.877 µM | 5.67 µM | 2.43 µM | 8.78 µM | 1.13 µM | 9.63 µM | 0.811 µM | 12.8 µM | 1.12 µM | 10.9 µM | 1.09 µM | 3.99 µM
NC(=O)NNC/C(Cl)=C(\Cl)C(=O)O | – | – | – | > 100 µM | – | > 100 µM | – | > 100 µM | – | > 100 µM | – | > 100 µM | – | > 100 µM | – | > 100 µM | – | > 100 µM | – | > 100 µM
N#C/C(=C\c1ccc[nH]1)c1cc(-c2ccc(Cl)cc2)nn1-c1ccccc1 | 4.72 µM | 15.7 µM | 2.89 µM | > 100 µM | 5.37 µM | 25.1 µM | 3.24 µM | 10.9 µM | 3.43 µM | 13.3 µM | 2.37 µM | 8.69 µM | 2.8 µM | 13 µM | 5.87 µM | > 48 µM | 7.07 µM | 24 µM | 3.82 µM | 31 µM
Nc1nc(N)c2c(ccc3c2ccn3Cc2cccc([N+](=O)[O-])c2)n1 | 1.25 µM | 3.05 µM | 1.32 µM | – | 0.0126 µM | 1.58 µM and 1.7 µM | – | 21.6 µM | 0.00501 µM | 1.89 µM and 1.35 µM | 1.01 µM and 0.794 µM | 2.24 µM and 2.22 µM | – | 3.49 µM and 4.55 µM | 0.0615 µM | 1.65 µM | 0.018 µM | 1.72 µM | 0.043 µM | 0.806 µM
O=C(Nc1ccc(Cl)c(Cl)c1)c1ccc(NC2=C(Cl)C(=O)N(Cc3ccccc3)C2=O)cc1 | 3.29 µM | 10.6 µM | 23.3 µM | 48.6 µM | – | – | 2.34 µM | 5.93 µM | 9.32 µM | 22.8 µM | 2.14 µM | 4.86 µM | 13.6 µM | 34.7 µM | 10.9 µM | 25.9 µM | – | – | 13.1 µM | 25.8 µM
O=C1C2=C(C(=O)c3ccccc31)C(O)(S(=O)(=O)O)C(O)(S(=O)(=O)O)C1N=CC=CC21 (centres undefined) | 5.88 µM and 5.04 µM | 39.9 µM and 25.8 µM | 3.32 µM and 2.71 µM | 31.9 µM and 14.5 µM | 3.47 µM and 2.15 µM | > 100 µM | 3.71 µM | > 100 µM | 2.84 µM and 1.39 µM | 11.7 µM and 6.25 µM | 2.33 µM and 2.86 µM | 6.78 µM and 11.7 µM | 2.57 µM and 1.13 µM | 6.68 µM and 8.19 µM | 4.84 µM and 3.25 µM | > 100 µM and 14.1 µM | 3.85 µM and 2.69 µM | 28.8 µM and 17.8 µM | 2.46 µM and 2.19 µM | 27 µM and 13 µM
COC(=O)[C@]1(C)CCC[C@@]2(C)C3=C(CC[C@H]12)C[C@@H](CC(OC(C)=O)OC(C)=O)[C@@H](C)C3 | 12.8 µM | 25.2 µM | 11.7 µM | 23.9 µM | 15.4 µM | > 40.7 µM | 14.7 µM | > 50 µM | 9.2 µM | 25.3 µM | 10.7 µM | 27.9 µM | 11 µM | 26.7 µM | 9.42 µM | 20.6 µM | 13.4 µM | > 28.9 µM | 10.6 µM | 24.8 µM
O=C1/C=C/[C@@H](O)[C@@H]2C[C@@H](O)C[C@H]2/C=C/CCC[C@H](CCO)O1 | 0.33 µM | > 31.5 µM | 0.253 µM | > 100 µM | 0.35 µM | > 100 µM | 0.365 µM | > 100 µM | 0.382 µM | > 100 µM | 0.193 µM | 0.5 µM | 0.29 µM | > 100 µM | 0.314 µM | > 80.9 µM | 0.382 µM | > 100 µM | 0.22 µM | > 100 µM
CN1C(=O)N(C)C2C1NC(=S)N2/N=C/C=C/c1ccccc1[N+](=O)[O-] (centres undefined) | 3.34 µM | > 100 µM | 3.86 µM | > 100 µM | 0.889 µM | > 100 µM | – | – | 0.701 µM | > 100 µM | 0.344 µM | > 100 µM | 0.625 µM | > 100 µM | 6.82 µM | > 100 µM | – | – | 3.86 µM | > 100 µM
CC(=O)C1=C(C)N(Cc2ccccc2)C2(O)C=CC(=O)C3=C(O)c4ccccc4C(=O)C312 (centres undefined) | 5.88 µM | 19.6 µM | 16.4 µM | 33.8 µM | 1.81 µM | 4.51 µM | 8.68 µM | > 100 µM | 7.24 µM | 41.3 µM | 1.42 µM | 3.14 µM | 12.5 µM | 27.9 µM | 1.82 µM | 3.6 µM | 3.38 µM | 10.2 µM | – | –
CCN1CCN(c2ccc(NC(=O)Nc3nc4ccc(-c5ccccc5OC)cc4s3)cc2)CC1 | 1.88 µM | 3.73 µM | 1.51 µM | 3.12 µM | 1.2 µM | 2.47 µM | – | – | 1.77 µM | 3.27 µM | 1.64 µM | 3.11 µM | 1.68 µM | 3.09 µM | 1.77 µM | 3.37 µM | 1.57 µM | 2.94 µM | 1.52 µM | 2.92 µM
C=C1C(=O)O[C@@H]2/C=C(/C)[C@@H](OC(C)=O)C[C@@H](O)/C(C)=C\[C@@H](OC(=O)[C@]3(C)O[C@@H]3C)[C@@H]12 | – | 18.8 µM | – | 24.4 µM | – | 34.1 µM | – | 17.5 µM | – | 72.9 µM | – | 23.8 µM | – | > 100 µM | – | 24.7 µM | – | 31.3 µM | – | –
CCO/C=C\C12CCCC1NC(c1ccccc1)(c1ccccc1)O2 (centres undefined) | – | – | – | > 100 µM | – | – | – | 56.7 µM | – | > 100 µM | – | 55.7 µM | – | > 100 µM | – | 78.3 µM | – | > 100 µM | – | 73.6 µM
